The record followed here is PubChem BioAssay (NCI).

Among the test systems are CAKI-1 renal; OVCAR-8 ovarian; SF-268 CNS; NCI-H460 lung; TK-10 renal; SR leukemia; COLO 205 colon; CCRF-CEM leukemia; A498 renal; M14 melanoma.
What all share (assay): NCI-60 cell line screen, 48 h

Each structure is given as a SMILES string. Where “and” joins values, the source holds several entries; their conditions need not be identical. Identical values can stand only once.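 Growth conditions: 96-well plates. Treatment: test compound, 48 hours, 5 concentrations. Analysis: linear interpolation between bracketing concentrations; unreached endpoints set to highest concentration. Abbreviation: GI50, concentration required for 50% inhibition of growth. The concentration for full growth arrest is given as TGI.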 Some results are limits rather than exact numbers.

Regarding `COc1cc(Nc2ncc(F)c(Nc3ccc4c(n3)N(COP(=O)(O)O)C(=O)C(C)(C)O4)n2)cc(OC)c1OC`, the GI50 in the assay with CAKI-1 renal was 0.456 µM and 0.645 µM; with OVCAR-8 ovarian it was 3.33 µM and 3.07 µM; with SF-268 CNS, 1.45 µM and 1.04 µM; with NCI-H460 lung, 3.59 µM and 3.45 µM; in the assay with TK-10 renal, 0.774 µM and 0.768 µM; in the assay on SR leukemia, 2.93 µM and 2.97 µM. Besides, the GI50 is 2.03 µM and 1.31 µM with COLO 205 colon; 3.09 µM and 3.84 µM in the assay with CCRF-CEM leukemia; 0.356 µM and 0.221 µM in the assay on A498 renal; 2.71 µM and 2.88 µM in the assay with M14 melanoma. Also, the TGI is 1.9 µM and > 10 µM in the assay on CAKI-1 renal; 16.5 µM and > 10 µM with OVCAR-8 ovarian; 5.22 µM and 3.73 µM in the assay with SF-268 CNS; above 100 µM in the assay with NCI-H460 lung; 3.06 µM in the assay with TK-10 renal; above 36.5 µM in the assay on SR leukemia. Moreover, the TGI was 5.37 µM and 3.59 µM in the assay with COLO 205 colon; 44.8 µM and > 10 µM in the assay with CCRF-CEM leukemia; 1.37 µM and 0.872 µM in the assay with A498 renal; 29.4 µM and > 10 µM in the assay with M14 melanoma.

For `Cn1cc2ccccc2c1-c1nc(F)nc(OCC(=O)[C@H]2CCC3[C@@H]4CCC5=CC(=O)CC[C@]5(C)C4[C@@H](O)C[C@@]32C)n1` (some centres undefined), the TGI with CAKI-1 renal came to 14 µM; in the assay on OVCAR-8 ovarian it was 18.5 µM; with SF-268 CNS it was 33.3 µM; in the assay with NCI-H460 lung it was 52.2 µM; in the assay on TK-10 renal, 47.9 µM; with SR leukemia, 12.8 µM. Moreover, the TGI was 40.1 µM in the assay on COLO 205 colon, 27.5 µM in the assay with CCRF-CEM leukemia, above 54 µM in the assay with A498 renal and 44.7 µM in the assay with M14 melanoma.

As for `CCN1CCN(CC(=O)N2c3cccc4cccc(c34)N(C(=O)CN3CCN(CC)CC3)C2c2cn(-c3ccccc3)nc2-c2cccc([N+](=O)[O-])c2)CC1`, the GI50 was 1.4 µM in the assay with CAKI-1 renal; 2.06 µM with OVCAR-8 ovarian; 1.67 µM in the assay on SF-268 CNS; 1.51 µM with NCI-H460 lung; 1.88 µM in the assay on TK-10 renal; 0.267 µM in the assay on SR leukemia. Further, the GI50 with COLO 205 colon was 1.72 µM; with CCRF-CEM leukemia it was 1.15 µM; with A498 renal, 0.49 µM; with M14 melanoma, 1.69 µM. Moreover, the TGI was 2.9 µM in the assay on CAKI-1 renal; 5.01 µM in the assay on OVCAR-8 ovarian; 3.47 µM in the assay on SF-268 CNS; 3.14 µM in the assay on NCI-H460 lung; 3.69 µM in the assay with TK-10 renal; 0.8 µM with SR leukemia. The TGI worked out at 3.39 µM in the assay on COLO 205 colon, 3.51 µM with CCRF-CEM leukemia, 2.11 µM in the assay with A498 renal and 3.46 µM in the assay with M14 melanoma.

Regarding `CCN(CC)c1ccc(C(=O)c2ccc(N(CC)CC)cc2)cc1`, the GI50 with CAKI-1 renal is 0.364 µM; in the assay with OVCAR-8 ovarian, 0.72 µM; with SF-268 CNS, 0.666 µM; with NCI-H460 lung it was 0.372 µM; in the assay on TK-10 renal, 1.33 µM; in the assay with SR leukemia it was 0.127 µM. The GI50 in the assay with COLO 205 colon is 0.515 µM; with CCRF-CEM leukemia, 0.383 µM; in the assay with A498 renal it was 0.335 µM; in the assay on M14 melanoma it was 0.614 µM. Further, the TGI is above 36.7 µM in the assay with CAKI-1 renal; above 38.9 µM in the assay on OVCAR-8 ovarian; above 35.9 µM in the assay with SF-268 CNS; 1.99 µM in the assay on NCI-H460 lung; 68.9 µM in the assay with TK-10 renal; above 100 µM in the assay with SR leukemia. Also, the TGI was 3.44 µM with COLO 205 colon, above 100 µM with CCRF-CEM leukemia, 4.14 µM in the assay on A498 renal and above 30.1 µM with M14 melanoma.

For the molecule `CC1OC(n2cc(F)c(=O)[nH]c2=O)C=CC1=O` (centres undefined), the TGI was 31.1 µM with CAKI-1 renal; 47.9 µM in the assay with OVCAR-8 ovarian; 38.7 µM in the assay with SF-268 CNS; 56.8 µM in the assay on NCI-H460 lung; 30.7 µM in the assay with TK-10 renal; 55.8 µM in the assay with SR leukemia. In addition, the TGI is 89.1 µM in the assay on COLO 205 colon, 53 µM in the assay on CCRF-CEM leukemia, 36.9 µM in the assay on A498 renal and 34.1 µM in the assay with M14 melanoma.

Take `Cc1cnc(C(=O)NNc2nc3sc4c(c3c(=O)n2C)C(C)CCC4)cn1` (centres undefined): the GI50 in the assay with CAKI-1 renal was 0.333 µM; in the assay with OVCAR-8 ovarian it was 0.366 µM; with SF-268 CNS, 0.28 µM; in the assay with NCI-H460 lung, 0.194 µM; in the assay with TK-10 renal it was 0.608 µM; in the assay with SR leukemia, 0.237 µM. The GI50 with COLO 205 colon is 0.296 µM; with CCRF-CEM leukemia, 0.245 µM; with A498 renal it was 1.89 µM; in the assay on M14 melanoma it was 0.284 µM. For the same molecule, the TGI was 2.49 µM in the assay with CAKI-1 renal; 11.9 µM in the assay with OVCAR-8 ovarian; 6.65 µM in the assay with SF-268 CNS; 2.02 µM with NCI-H460 lung; 11.9 µM in the assay with TK-10 renal; above 100 µM in the assay with SR leukemia. The TGI with COLO 205 colon amounted to 1.33 µM; with A498 renal it was 7.8 µM; in the assay with M14 melanoma, 2.43 µM.

On to `Cc1cc(N2CCOCC2)cc2[nH]c(-c3c(NC[C@@H](O)c4cccc(Cl)c4)cc[nH]c3=O)nc12`, for which the GI50 with CAKI-1 renal was 1.46 µM; with OVCAR-8 ovarian it was 3.23 µM; with SF-268 CNS it was 2.06 µM; in the assay on NCI-H460 lung it was 0.51 µM; with TK-10 renal it was 1.55 µM; with SR leukemia it was 0.295 µM. The GI50 is 0.118 µM in the assay on COLO 205 colon, 4.01 µM with CCRF-CEM leukemia, 0.35 µM with A498 renal and 0.925 µM in the assay on M14 melanoma. Moreover, the TGI with CAKI-1 renal was found to be 5.72 µM; in the assay on OVCAR-8 ovarian, 14.7 µM; in the assay on SF-268 CNS it was 7.63 µM; in the assay on NCI-H460 lung, 11.2 µM; with TK-10 renal, 4.4 µM; with SR leukemia it was 5.06 µM. Moreover, the TGI is 0.642 µM with COLO 205 colon, above 100 µM in the assay with CCRF-CEM leukemia, 1.15 µM in the assay on A498 renal and 7.66 µM with M14 melanoma.

As for `O=C1C(=Cc2c(O)cc(O)cc2O)C(=O)c2ccccc21`, the TGI was above 65.5 µM with CAKI-1 renal; above 59.7 µM in the assay with OVCAR-8 ovarian; above 63.1 µM in the assay on SF-268 CNS; above 67.7 µM in the assay on NCI-H460 lung; above 67.5 µM in the assay with TK-10 renal; 50.7 µM in the assay on SR leukemia. Moreover, the TGI was above 56 µM with COLO 205 colon, above 73.1 µM in the assay on CCRF-CEM leukemia, 98.7 µM with A498 renal and above 57.2 µM in the assay with M14 melanoma.
